From patent US9623012B2, “Formulation comprising benzothiazolone compound” (priority 2013, dated 2017)
Structures can show the parent of a compound that is named as a salt.

How the values were obtained:
[1] = molecular target: human β2 adrenoceptor (β2 AR) (Homo sapiens, UniProt P07550); assay: cAMP response in CHO cells stably transfected with human β2 adrenoceptor (Test 1)
[2] = Comparative solubility in H2O with pH adjustment; type: physicochemical
Experimental: The relative solubilities of the free base form and the acetate and glycolate salt forms of Compound A were analysed and the results are show in the table below. Solutions were titrated with addition of HCl or NaOH for pH adjustment. The improved aqueous solubilities of the acetate and glycolate salt forms relative to the free base form of Compound A make the acetate and glycolate salts of Compound A more suitable for subcutaneous injection or infusion.

human 5-HT2C receptor = molecular target: T1, human 5-HT2C receptor (Homo sapiens, UniProt P28335); assay: 3H-Mesulergine binding to hr5-HT2C CHO cell membranes; settings: 3H-Mesulergine 1 nM, kind of constant not given
T1 construct: purchased Biosignal Packard, USA; host or cells: CHO cell membranes
T1 sequence (P28335 33-458): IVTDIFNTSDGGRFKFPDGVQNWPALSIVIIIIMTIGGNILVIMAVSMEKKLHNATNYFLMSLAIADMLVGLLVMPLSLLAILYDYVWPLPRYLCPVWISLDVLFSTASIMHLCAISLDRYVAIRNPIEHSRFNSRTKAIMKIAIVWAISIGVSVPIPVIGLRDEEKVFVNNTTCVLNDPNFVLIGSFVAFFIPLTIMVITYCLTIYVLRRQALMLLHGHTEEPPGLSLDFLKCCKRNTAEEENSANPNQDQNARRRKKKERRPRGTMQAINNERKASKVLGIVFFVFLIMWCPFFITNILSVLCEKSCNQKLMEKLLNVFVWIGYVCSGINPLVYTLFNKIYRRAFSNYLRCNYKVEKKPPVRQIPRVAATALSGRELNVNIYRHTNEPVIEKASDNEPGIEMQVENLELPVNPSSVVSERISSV
Experimental: Non-specific binding is evaluated in the presence of 1 μM Mesulergine. Fifty μL each of membrane, ligand and compound in a total volume of […] are incubated in 96-well plates for 60 min at 22° C. in a buffer containing 50 mM Tris, 0.1% ascorbic acid, 10 μM Pargyline, pH 7.7. The plates are filtrated, washed 3 times in ice-cold 50 mM Tris, dried and measured in Topcount.

Male Wistar Han IGS rats = type: in vivo; settings: rat, s.c. minipump 4 weeks; formoterol 0.003-0.03, Compound A 0.01-0.1 mg/kg/day
Experimental: Male Wistar Han IGS (International Genetic Standard) rats (Crl:WI(Han)) at the weight of 350-400 g were purchased from Charles River Laboratories. Rats were acclimated to the facility for 7 days. Animals were housed in groups of 3 animals at 25° C. with a 12:12 h light-dark cycle. They were fed a standard laboratory diet containing 18.2% protein and 3.0% fat with an energy content of 15.8 MJ/kg (NAFAG 3890, Kliba, Basel, Switzerland). Food and water were provided ad libitum. […] Pumps were filled with the solution and kept for several hours at 37° C. in PBS until surgical implantation. Rats were treated subcutaneously with Temgesic at a dose of 0.02 mg/kg with a volume of 1 ml/kg at least 30 minutes before surgery, and then the pumps filled with the solution indicated above were implanted subcutaneously into the back of the rats under anesthesia with isoflurane at a concentration of 3%. Temgesic was administered subcutaneously to the rats 24 h and 48 h after the surgery. Body weights were measured twice per week. Clips were removed 10 days after the surgery under anesthesia. Four weeks after the treatment, the rats were euthanized with CO2, and the tibialis anterior, gastrocnemius and soleus muscles, heart and brain were dissected and weighed. Brain weight was used for normalization of organ weights. Results are expressed as mean +/−SEM. […]

Wistar Han rats = assay: Heart rate in vivo in rats after s.c. bolus; settings: rat, s.c. bolus up to 0.3 mg/kg
Text: Wistar Han (W-H) IGS (International Genetic Standard) rats (Crl:WI(Han)) were purchased from Charles River Laboratories. Femoral arterial and venous catheters were chronically implanted and exteriorized through a spring tether-swivel system and housed in specialized cages. Arterial catheter was connected to a pressure transducer to continuously measure pulse pressure, mean arterial pressure and heart rate, which was derived from the blood pressure signal, via a digital data acquisition system. Compounds were administered via s.c catheter implanted through the skin buttun. Values are expressed as means±SEM (n=3).

[3] = test system: left atria from Dunkin Hartley Guinea pig; assay: Left atrium contraction assay (Ricerca, Adrenergic beta1)
Rhesus monkeys = assay: Heart rate in vivo in rhesus monkeys after s.c. bolus; settings: rhesus monkey, s.c. bolus up to 0.03 mg/kg
Experimental: Rhesus monkeys, 24 females with body weight around 4 to 8 kg, were randomized into 4 groups of n=6. The animals were restrained on a chair up to 4 hours after single subcutaneous administration of compounds, and then returned to their pens. Heart rates were measured using a Surgivet V3304 device. Values are expressed as means±SEM (n=6).

[4] = molecular target: human β1 adrenoceptor (β1 AR) (Homo sapiens, UniProt P08588); assay: cAMP response in CHO cells stably transfected with human β1 adrenoceptor (Test 1)
[5] = molecular target: T2, Serotonin 5-HT2C receptor (Homo sapiens, UniProt P28335); assay: Aequorin agonist assay in CHO-K1 cells expressing Serotonin 5-HT2C; type: cell-based; settings: aequorin luminescence, agonist mode
T2 construct: expressed in transfected cells; host or cells: CHO-K1 cells coexpressing mitochondrial apoaequorin and Gα16
T2 sequence (P28335 33-458): T1 sequence (P28335 33-458)
Experimental: CHO-K1 cells coexpressing mitochondrial apoaequorin, recombinant Serotonin 5-HT2Cne and the promiscuous G protein Gα16, grown to mid-log phase in culture media without antibiotics were detached with PBS-EDTA, centrifuged and resuspended in assay buffer (DMEM/HAM's F12 with HEPES, without phenol red+0.1% BSA protease free) at a concentration of 1×10^6 cells/ml. Cells were incubated at room temperature for at least 4 h with coelenterazine h. […] For agonist testing, 50 μL of cell suspension were mixed with 50 μL of test or reference agonist in a 96-well plate. The resulting emission of light is recorded using Hamamatsu Functional Drug Screening System 6000 (FDSS 6000) luminometer. Agonist activity of test compound was expressed as a percentage of the activity of the reference agonist at its EC100 concentration.

[6] = molecular target: T3, human adrenergic Alpha1A (α1A AR) (Homo sapiens, UniProt P35348); assay: Ca2+ FLIPR assay in human adrenergic Alpha1A CHO-K1 cell line (Test 1); type: cell-based; settings: read-out: CHO cells EC50 α1A AR
T3 sequence (P35348 1-466): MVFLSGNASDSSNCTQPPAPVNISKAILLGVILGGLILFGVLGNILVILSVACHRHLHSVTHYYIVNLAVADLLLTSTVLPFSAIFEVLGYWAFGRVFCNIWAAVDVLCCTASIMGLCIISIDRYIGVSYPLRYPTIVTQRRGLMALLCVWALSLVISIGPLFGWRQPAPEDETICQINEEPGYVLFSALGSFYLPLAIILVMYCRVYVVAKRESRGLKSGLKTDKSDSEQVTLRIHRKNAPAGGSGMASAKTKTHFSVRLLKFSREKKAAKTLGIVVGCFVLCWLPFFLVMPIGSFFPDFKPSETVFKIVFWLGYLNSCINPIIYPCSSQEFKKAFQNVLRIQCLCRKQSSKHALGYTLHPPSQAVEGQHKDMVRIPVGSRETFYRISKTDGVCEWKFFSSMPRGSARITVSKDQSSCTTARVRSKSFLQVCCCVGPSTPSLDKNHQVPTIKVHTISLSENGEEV
Experimental: Compounds acting as agonists induce a transient increase of intracellular calcium. This was recorded on the FLIPR system. A measurement of the signal baseline was first recorded every second for 2 minutes before the injection of the compounds. […] Low controls (unstimulated cells) were determined with the addition of 5 μL of assay buffer.

Sequence of human β2 adrenoceptor (β2 AR) (P07550 whole entry): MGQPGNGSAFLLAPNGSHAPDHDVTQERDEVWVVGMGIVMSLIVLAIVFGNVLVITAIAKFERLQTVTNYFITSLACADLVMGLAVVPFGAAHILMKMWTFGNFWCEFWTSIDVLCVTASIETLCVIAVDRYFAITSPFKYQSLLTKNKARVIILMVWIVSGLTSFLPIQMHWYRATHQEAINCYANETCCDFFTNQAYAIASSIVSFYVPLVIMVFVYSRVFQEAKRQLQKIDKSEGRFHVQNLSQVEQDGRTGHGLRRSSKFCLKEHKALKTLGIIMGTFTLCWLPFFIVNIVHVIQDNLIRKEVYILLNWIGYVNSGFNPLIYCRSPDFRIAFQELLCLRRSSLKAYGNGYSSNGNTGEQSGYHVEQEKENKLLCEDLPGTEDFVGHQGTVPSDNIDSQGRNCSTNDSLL
Sequence of human β1 adrenoceptor (β1 AR) (P08588 whole entry): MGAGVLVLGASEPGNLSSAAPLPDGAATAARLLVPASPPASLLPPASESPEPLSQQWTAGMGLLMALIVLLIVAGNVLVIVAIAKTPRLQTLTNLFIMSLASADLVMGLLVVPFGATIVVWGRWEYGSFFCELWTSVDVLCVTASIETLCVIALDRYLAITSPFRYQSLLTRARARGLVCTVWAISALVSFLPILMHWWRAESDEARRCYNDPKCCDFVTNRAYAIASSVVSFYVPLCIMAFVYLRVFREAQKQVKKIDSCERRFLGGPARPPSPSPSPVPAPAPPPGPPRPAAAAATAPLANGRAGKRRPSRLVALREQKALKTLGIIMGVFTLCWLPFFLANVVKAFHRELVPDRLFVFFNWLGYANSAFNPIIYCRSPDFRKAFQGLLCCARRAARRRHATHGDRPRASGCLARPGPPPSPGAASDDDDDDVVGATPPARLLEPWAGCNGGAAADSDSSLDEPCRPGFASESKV

SMILES: CCCCOc1ccc(CC(C)(C)NC[C@H](O)c2cc(O)cc3[nH]c(=O)sc23)cc1 [Compound A (R) acetate salt, (R)-7-(2-(1-(4-butoxyphenyl)-2-methylpropan-2-ylamino)-1-hydroxyethyl)-5-hydroxybenzo[d]thiazol-2(3H)-one acetate salt]
- Emax ([1]; CHO, read-out: CHO cells Emax % β2 AR, cAMP, compared to isoprenaline): 91%

SMILES: CCCCOc1ccc(CC(C)(C)NC[C@H](O)c2cc(O)cc3[nH]c(=O)sc23)cc1 [Compound A, (R)-7-(2-(1-(4-butoxyphenyl)-2-methylpropan-2-ylamino)-1-hydroxyethyl)-5-hydroxybenzo[d]thiazol-2(3H)-one]
- solubility in H2O, Conc ([2]; pH 7.3): <10 µg/mL
- solubility in H2O, Conc ([2]; pH 7.8): <10 µg/mL
- Serotonin 5-HT2C Binding (human 5-HT2C receptor): 11 µM
- skeletal muscle mass and heart mass increase (FIG. 1) (Male Wistar Han IGS rats): induces skeletal muscle hypertrophy with minimum impact on heart mass
- heart rate increase (Wistar Han rats): less heart rate increases compared to formoterol
- EC50 ([3]; Cavia porcellus, guinea pig left atria, n = 2): > 10000 nM
- effects on left atrium contraction ([3]; up to 10 μM): no effects
- heart rate increase (Rhesus monkeys): less heart rate increase compared to formoterol

SMILES: CCCCOc1ccc(CC(C)(C)NCC(O)c2cc(O)cc3[nH]c(=O)sc23)cc1 (racemic) [Compound A/B]
- Serotonin 5-HT2C Binding (human 5-HT2C receptor): 1.7 µM
- EC50 [1]: 11 nM
- EC50 [4]: 684 nM
- EC50 [5]: 25 nM

SMILES: CCCCOc1ccc(CC(C)(C)NC[C@@H](O)c2cc(O)cc3[nH]c(=O)sc23)cc1 [Compound B (S)]
- Serotonin 5-HT2C Binding (human 5-HT2C receptor): 0.8 µM
- EC50 [1]: 950 nM
- EC50 [6]: > 30000 nM
- EC50 [4]: > 10000 nM
- EC50 [5]: 19.7 nM

SMILES: CCCCOc1ccc(CC(C)(C)NC[C@H](O)c2cc(O)cc3[nH]c(=O)sc23)cc1.O=C(O)CO [Compound A glycolate salt]
- solubility in H2O, Conc ([2]; pH 5.1): 13100 µg/mL
- solubility in H2O, Conc ([2]; pH 5.3): 6390 µg/mL
- solubility in H2O, Conc ([2]; pH 5.4): 4470 µg/mL
